We go through 1 compound from ChEMBL document CHEMBL5357083 (ACS Med Chem Lett, 2024).

The nature of data set [1]: in vitro. To be noted: mouse, liver microsomes. In general terms: Liver microsomes are a subcellular fraction often used to study metabolism.
Data set [2] in a line: in vitro. The settings on record: dog, MDCK-MDR1.

One may read the Papp A→B as the apparent permeability from the apical to the basolateral side of a cell layer.

As for `Brc1ccc2[nH]nc(C3=CCCNC3)c2c1`, the CLhep predicted at […], 1 µM in the data set “in vitro [1]” was 57 mL/min/kg. The Papp A→B at 5 µM in the data set “in vitro [2]” came out at 7.9 ×10⁻⁶ cm/s.
